Consider twelve molecules from US12129246B1, “Hydroquinazoline derivatives for the treatment of a disease or disorder” (Novartis AG, priority 2023, dated 2024).

Broadly, the AC50 is the midpoint of the concentration-response curve, whichever way the signal moves.

SMILES strings stand for the structures. Read-outs that look alike come from different tables or passages of the source.

In one experiment the target is T1, human NPR1 (Homo sapiens, UniProt P16066).
T1 construct: host or cells: CHO-K1
T1 sequence (P16066 33-1061): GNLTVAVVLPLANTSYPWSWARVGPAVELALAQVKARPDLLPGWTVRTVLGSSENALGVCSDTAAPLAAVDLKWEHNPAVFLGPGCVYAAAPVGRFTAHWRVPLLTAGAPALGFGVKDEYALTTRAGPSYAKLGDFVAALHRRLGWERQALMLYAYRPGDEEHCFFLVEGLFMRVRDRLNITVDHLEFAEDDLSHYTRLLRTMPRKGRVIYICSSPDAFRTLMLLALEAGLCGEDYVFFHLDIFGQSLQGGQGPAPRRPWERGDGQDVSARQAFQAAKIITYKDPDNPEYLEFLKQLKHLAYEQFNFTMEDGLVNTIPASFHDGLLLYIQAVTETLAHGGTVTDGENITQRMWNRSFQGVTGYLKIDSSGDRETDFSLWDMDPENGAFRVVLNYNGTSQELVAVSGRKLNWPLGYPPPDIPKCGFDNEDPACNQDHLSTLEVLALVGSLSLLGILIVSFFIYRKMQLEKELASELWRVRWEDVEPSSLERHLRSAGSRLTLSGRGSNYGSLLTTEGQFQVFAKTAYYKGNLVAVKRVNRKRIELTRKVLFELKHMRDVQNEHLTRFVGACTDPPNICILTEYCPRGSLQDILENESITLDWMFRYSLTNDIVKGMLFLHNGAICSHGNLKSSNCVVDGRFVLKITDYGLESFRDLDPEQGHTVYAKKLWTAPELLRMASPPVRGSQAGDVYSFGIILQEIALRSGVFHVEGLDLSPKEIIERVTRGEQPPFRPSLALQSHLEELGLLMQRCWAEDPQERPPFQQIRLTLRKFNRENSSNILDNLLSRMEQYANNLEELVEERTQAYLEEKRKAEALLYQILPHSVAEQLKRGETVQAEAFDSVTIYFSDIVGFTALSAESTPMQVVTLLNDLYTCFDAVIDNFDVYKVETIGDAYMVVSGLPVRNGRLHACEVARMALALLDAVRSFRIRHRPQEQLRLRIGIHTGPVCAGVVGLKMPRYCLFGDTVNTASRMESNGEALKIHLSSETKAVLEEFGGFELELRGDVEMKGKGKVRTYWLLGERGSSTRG
Briefly: Cellular cGMP production assay, human NPR1 expressing CHO-K1 cells (CisBio HTRF). The settings on record: for AC50: cGMP production, 30 min at 37° C., 12-point dose-response from 30 μM; for Human NPR1 Amax (% of ANP): maximum cGMP production as percentage of the maximum cGMP produced with ANP. Type of experiment: cell-based. The method, boiled down:
(§1)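 Read-out was HTRF (excitation 317 nm, emission 665 nm), with cGMP quantified as Delta F against a calibrator standard curve. Beforehand, cells were exposed for 30 min at 37 °C to compound (30 μM top, twelve 3-fold steps) in IBMX-containing PBS/BSA buffer, then lysed.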
On the technique in general: In TR-FRET formats the signal depends on donor and acceptor labels being close together.

A further experiment concerns the target monkey NPR1 (Macaca fascicularis, UniProt A0A7N9DBT9). Briefly: Cellular cGMP production assay, monkey NPR1 expressing CHO-K1 cells (CisBio HTRF). The class given is cell-based. The note with it: for Monkey NPR1 Amax (% of ANP): maximum cGMP production as percentage of the maximum cGMP produced with ANP. The method, boiled down:
as §1

Where [1] appears, read: cGMP production, monkey NPR1 CHO-K1 cells, 30 min at 37° C., 12-point dose-response from 30 μM, read-out: Monkey NPR1 AC50.

monkey NPR1, sequence (A0A7N9DBT9 entry or part of it): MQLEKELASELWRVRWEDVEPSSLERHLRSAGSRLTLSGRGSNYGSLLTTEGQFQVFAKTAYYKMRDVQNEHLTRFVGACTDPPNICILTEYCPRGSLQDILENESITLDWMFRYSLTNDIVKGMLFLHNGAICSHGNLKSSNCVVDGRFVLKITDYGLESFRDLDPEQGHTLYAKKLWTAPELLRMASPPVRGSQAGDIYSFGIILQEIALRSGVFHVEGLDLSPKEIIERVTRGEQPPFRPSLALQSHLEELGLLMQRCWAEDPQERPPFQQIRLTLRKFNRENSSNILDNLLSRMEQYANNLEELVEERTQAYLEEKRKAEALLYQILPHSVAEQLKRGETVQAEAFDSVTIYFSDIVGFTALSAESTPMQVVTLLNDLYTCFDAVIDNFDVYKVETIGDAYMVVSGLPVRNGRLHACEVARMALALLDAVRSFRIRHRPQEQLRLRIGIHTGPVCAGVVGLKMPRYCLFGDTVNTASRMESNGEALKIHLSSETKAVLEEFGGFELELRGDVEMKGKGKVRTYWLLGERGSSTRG

`CC[C@H]([C@H]1CC[C@H](C(=O)O)CC1)N(C)c1nc2c(c(N[C@@H](CN3CCC[C@H](C)C3)c3cnn(C)c3)n1)CN(c1cccc(F)c1)CC2` [Compound 124, (1R,4r)-4-((R)-1-((6-(3-fluorophenyl)-4-(((R)-1-(1-methyl-1H-pyrazol-4-yl)-2-((S)-3-methylpiperidin-1-yl)ethyl)amino)-5,6,7,8-tetrahydropyrido[4,3-d]pyrimidin-2-yl)(methyl)amino)propyl)cyclohexane-1-carboxylic acid]: the figures for the AC50 at human NPR1 and on monkey NPR1 (setting [1]) were 617 nM and 406 nM, respectively. Also, on human NPR1, the “Human NPR1 Amax (% of ANP)” value is 106.069 % of ANP. Also, the “Monkey NPR1 Amax (% of ANP)” value on monkey NPR1 (monkey NPR1 CHO-K1 cells) is given as 101.428 % of ANP.

With `CC[C@H]([C@H]1CC[C@H](C(=O)O)CC1)N(C)c1nc2c(c(N[C@@H](CN3CCC[C@@H](C)C3)c3cnn(C)c3)n1)C[C@H](c1ccccc1)CC2` [Compound 125, (1R,4r)-4-((R)-1-(methyl((R)-4-(((R)-1-(1-methyl-1H-pyrazol-4-yl)-2-((R)-3-methylpiperidin-1-yl)ethyl)amino)-6-phenyl-5,6,7,8-tetrahydroquinazolin-2-yl)amino)propyl)cyclohexane-1-carboxylic acid], at human NPR1, the AC50 came out at 619 nM and the “Human NPR1 Amax (% of ANP)” value is 106.130 % of ANP. Further, the half-maximal activity concentration (AC50) on monkey NPR1 (setting [1]) stood at 410 nM. Moreover, the “Monkey NPR1 Amax (% of ANP)” value on monkey NPR1 (monkey NPR1 CHO-K1 cells) is on record as 114.072 % of ANP.

For `CC[C@@H](Nc1nc2c(c(N[C@@H](CN3CCCC4(CCC4)C3)c3cnn(CC)c3)n1)C[C@H](c1ccccc1)CC2)[C@H]1CC[C@H](C(=O)O)CC1` [Compound 126, (1R,4r)-4-((R)-1-(((R)-4-(((R)-1-(1-ethyl-1H-pyrazol-4-yl)-2-(6-azaspiro[3.5]nonan-6-yl)ethyl)amino)-6-phenyl-5,6,7,8-tetrahydroquinazolin-2-yl)amino)propyl)cyclohexane-1-carboxylic acid], the AC50 worked out at 620 nM at human NPR1 and 452 nM at monkey NPR1 (setting [1]). On human NPR1, the “Human NPR1 Amax (% of ANP)” value is listed as 98.906 % of ANP. Also, at monkey NPR1 (monkey NPR1 CHO-K1 cells), the “Monkey NPR1 Amax (% of ANP)” value is 102.477 % of ANP.

As to `CC[C@@H](Nc1nc2c(c(N[C@@H](CN3C4CCCC3CC4)c3csc(C)n3)n1)C[C@H](c1cccc(F)c1)CC2)[C@H]1CC[C@H](C(=O)O)CC1` [Compound 127, (1R,4r)-4-((1R)-1-(((6R)-4-(((1S)-2-(8-azabicyclo[3.2.1]octan-8-yl)-1-(2-methylthiazol-4-yl)ethyl)amino)-6-(3-fluorophenyl)-5,6,7,8-tetrahydroquinazolin-2-yl)amino)propyl)cyclohexane-1-carboxylic acid], at human NPR1, the half-maximal activity concentration (AC50) is 623 nM and the “Human NPR1 Amax (% of ANP)” value was 102.596 % of ANP. The activity at monkey NPR1 was half-maximal at 355 nM (AC50). Further, the “Monkey NPR1 Amax (% of ANP)” value at monkey NPR1 (monkey NPR1 CHO-K1 cells) was 102.089 % of ANP.

Regarding `CC[C@H]([C@H]1CC[C@H](C(=O)O)CC1)N(C)c1nc2c(c(N[C@@H](CN3CC4CCC3C4)c3cnn(C)c3)n1)C[C@H](c1ccccc1)CC2` (stereo partly drawn) [Compound 128, (1R,4r)-4-((1R)-1-(((6R)-4-(((1R)-2-(2-azabicyclo[2.2.1]heptan-2-yl)-1-(1-methyl-1H-pyrazol-4-yl)ethyl)amino)-6-phenyl-5,6,7,8-tetrahydroquinazolin-2-yl)(methyl)amino)propyl)cyclohexane-1-carboxylic acid], on human NPR1, the AC50 amounted to 629 nM and the “Human NPR1 Amax (% of ANP)” value is 105.430 % of ANP. Besides, on monkey NPR1 (setting [1]), the half-maximal activity concentration (AC50) worked out at 416 nM. In addition, the “Monkey NPR1 Amax (% of ANP)” value on monkey NPR1 (monkey NPR1 CHO-K1 cells) is on record as 95.117 % of ANP.

On to `CC[C@H]([C@H]1CC[C@H](C(=O)O)CC1)N(C)c1nc2c(c(N[C@@H](CN3CCC[C@H](O)C3)c3cnn(C)c3)n1)C[C@H](c1ccccc1)CC2` [Compound 129, (1R,4r)-4-((R)-1-(((R)-4-(((R)-2-((S)-3-hydroxypiperidin-1-yl)-1-(1-methyl-1H-pyrazol-4-yl)ethyl)amino)-6-phenyl-5,6,7,8-tetrahydroquinazolin-2-yl)(methyl)amino)propyl)cyclohexane-1-carboxylic acid], for which, at human NPR1, the AC50 is 646 nM and the “Human NPR1 Amax (% of ANP)” value is on record as 93.751 % of ANP. Besides, at monkey NPR1 (setting [1]), the half-maximal activity concentration (AC50) came out at 362 nM. The “Monkey NPR1 Amax (% of ANP)” value on monkey NPR1 (monkey NPR1 CHO-K1 cells) is listed as 91.227 % of ANP.

With `CC[C@@H](Nc1nc2c(c(N[C@@H](CN3CCCC3)c3ccccc3)n1)CN(c1ccccc1)CC2)[C@H]1CC[C@H](C(=O)O)CC1` [Compound 131, (1R,4r)-4-((R)-1-((6-phenyl-4-(((R)-1-phenyl-2-(pyrrolidin-1-yl)ethyl)amino)-5,6,7,8-tetrahydropyrido[4,3-d]pyrimidin-2-yl)amino)propyl)cyclohexane-1-carboxylic acid], at human NPR1, half-maximal activity (AC50) was put at 693 nM and the “Human NPR1 Amax (% of ANP)” value is recorded as 101.666 % of ANP. Moreover, the AC50 at monkey NPR1 (setting [1]) was 582 nM. For the same molecule, the “Monkey NPR1 Amax (% of ANP)” value at monkey NPR1 (monkey NPR1 CHO-K1 cells) is 109.531 % of ANP.

As to `CC[C@@H](Nc1nc2c(c(N[C@@H](CN3C4CCCC3CCC4)c3cnn(C(C)C)c3)n1)C[C@H](c1ccccc1)CC2)[C@H]1CC[C@H](C(=O)O)CC1` [Compound 132, (1R,4r)-4-((R)-1-(((R)-4-(((R)-2-((1S,5S)-9-azabicyclo[3.3.1]nonan-9-yl)-1-(1-isopropyl-1H-pyrazol-4-yl)ethyl)amino)-6-phenyl-5,6,7,8-tetrahydroquinazolin-2-yl)amino)propyl)cyclohexane-1-carboxylic acid], the concentration at half-maximal activity (AC50) at human NPR1 worked out at 757 nM; on monkey NPR1, 620 nM. For the same molecule, the “Human NPR1 Amax (% of ANP)” value at human NPR1 is 97.440 % of ANP. In addition, the “Monkey NPR1 Amax (% of ANP)” value on monkey NPR1 (monkey NPR1 CHO-K1 cells) was 103.231 % of ANP.

For `CN(c1nc2c(c(N[C@@H](CN3C4CCCC3CCC4)c3cnn(C)c3)n1)C[C@H](c1ccccc1)CC2)[C@H](C1CC1)[C@H]1CC[C@H](C(=O)O)CC1` [Compound 133, (1R,4r)-4-((R)-(((R)-4-(((R)-2-((1S,5S)-9-azabicyclo[3.3.1]nonan-9-yl)-1-(1-methyl-1H-pyrazol-4-yl)ethyl)amino)-6-phenyl-5,6,7,8-tetrahydroquinazolin-2-yl)(methyl)amino)(cyclopropyl)methyl)cyclohexane-1-carboxylic acid], the AC50 is 765 nM on human NPR1 and 647 nM on monkey NPR1. Further, the “Human NPR1 Amax (% of ANP)” value on human NPR1 is reported as 95.978 % of ANP. Also, the “Monkey NPR1 Amax (% of ANP)” value at monkey NPR1 (monkey NPR1 CHO-K1 cells) was 99.809 % of ANP.

Consider `CC[C@H]([C@H]1CC[C@H](C(=O)O)CC1)N(C)c1nc2c(c(N[C@@H](CN3CCC[C@H](OC)C3)c3cnn(C)c3)n1)C[C@H](c1ccccc1)CC2` [Compound 134, (1R,4r)-4-((R)-1-(((R)-4-(((R)-2-((S)-3-methoxypiperidin-1-yl)-1-(1-methyl-1H-pyrazol-4-yl)ethyl)amino)-6-phenyl-5,6,7,8-tetrahydroquinazolin-2-yl)(methyl)amino)propyl)cyclohexane-1-carboxylic acid], for which, at human NPR1, the AC50 came out at 792 nM and the “Human NPR1 Amax (% of ANP)” value is given as 101.936 % of ANP. In addition, the AC50 at monkey NPR1 (setting [1]) came out at 684 nM. In addition, on monkey NPR1 (monkey NPR1 CHO-K1 cells), the “Monkey NPR1 Amax (% of ANP)” value was 96.371 % of ANP.

As for `CC[C@H]([C@H]1CC[C@H](C(=O)O)CC1)N(C)c1nc2c(c(N[C@@H](CN3CCCC[C@H]3CO)c3cnn(CC)c3)n1)C[C@H](c1cccc(F)c1)CC2` [Compound 135, (1R,4r)-4-((R)-1-(((R)-4-(((R)-1-(1-ethyl-1H-pyrazol-4-yl)-2-((S)-2-(hydroxymethyl)piperidin-1-yl)ethyl)amino)-6-(3-fluorophenyl)-5,6,7,8-tetrahydroquinazolin-2-yl)(methyl)amino)propyl)cyclohexane-1-carboxylic acid], on human NPR1, the concentration at half-maximal activity (AC50) is 805 nM and the “Human NPR1 Amax (% of ANP)” value is 94.757 % of ANP. For the same molecule, the AC50 on monkey NPR1 (setting [1]) was found to be 604 nM. For the same molecule, the “Monkey NPR1 Amax (% of ANP)” value on monkey NPR1 (monkey NPR1 CHO-K1 cells) is given as 99.242 % of ANP.

With `CC[C@H]([C@H]1CC[C@H](C(=O)O)CC1)N(C)c1nc2c(c(N[C@@H](CN3CC4CCC3C4)c3ccccc3)n1)C[C@H](c1ccccc1)CC2` (stereo partly drawn) [Compound 136, (1R,4r)-4-((1R)-1-(((6R)-4-(((1R)-2-(2-azabicyclo[2.2.1]heptan-2-yl)-1-phenylethyl)amino)-6-phenyl-5,6,7,8-tetrahydroquinazolin-2-yl)(methyl)amino)propyl)cyclohexane-1-carboxylic acid], the figures for the concentration at half-maximal activity (AC50) on human NPR1 and at monkey NPR1 (setting [1]) were 812 nM and 516 nM, respectively. Besides, the “Human NPR1 Amax (% of ANP)” value at human NPR1 is 103.913 % of ANP. Moreover, at monkey NPR1 (monkey NPR1 CHO-K1 cells), the “Monkey NPR1 Amax (% of ANP)” value is reported as 96.754 % of ANP.
